The target in this test is T1, IGFR kinase (Homo sapiens, UniProt P08069).
T1 construct: purchased Millipore
In words: Enzyme assay (c), IGFR kinase, Caliper LabChip. The test is classed as biochemical. As to conditions: 30 nM IGFR kinase, 6 uM ATP, 3 uM peptide mix; read-out: IGFR IC50. As for the experimental part: For Echo dosing the solvent was 100% DMSO. A master plate was prepared with 40 ul of 10 mM stock solution of the test compound in DMSO in quadrant 1 of a Labcyte 384 well plate. A 1 in 100 dilution was made from quadrant 1 into quadrant 2 by removing 0.4 ul and adding it to 39.6 ul of DMSO. Subsequent 1 in 100 dilutions were made into quadrant 3 from quadrant 2 and quadrant 4 from quadrant 3.
Multiple 2.5 nl droplets were dispensed from each quadrant of the master plate to generate the dose range that was required in the test. The dose range most commonly used was as follows: 100 uM, 30 uM, 10 uM, 3 uM, 1 uM, 0.3 uM, 0.1 uM, 0.03 uM, 0.01 uM, 0.003 uM, 0.001 uM, 0.0001 uM. Each well was backfilled with dimethyl sulfoxide (DMSO) to a total volume of 120 nl, such that when the enzyme and substrate mix was added the final DMSO concentration was 1%.
DMSO was added to max control wells as 120 nl, minimum control wells were treated with 120 nl of compound at a concentration that inhibited the enzyme activity 100%.
Integration of the substrate and product peaks was carried out using Caliper LabChip software and IC50 curves were calculated using Origin™ software.

T1 sequence (P08069 31-1367): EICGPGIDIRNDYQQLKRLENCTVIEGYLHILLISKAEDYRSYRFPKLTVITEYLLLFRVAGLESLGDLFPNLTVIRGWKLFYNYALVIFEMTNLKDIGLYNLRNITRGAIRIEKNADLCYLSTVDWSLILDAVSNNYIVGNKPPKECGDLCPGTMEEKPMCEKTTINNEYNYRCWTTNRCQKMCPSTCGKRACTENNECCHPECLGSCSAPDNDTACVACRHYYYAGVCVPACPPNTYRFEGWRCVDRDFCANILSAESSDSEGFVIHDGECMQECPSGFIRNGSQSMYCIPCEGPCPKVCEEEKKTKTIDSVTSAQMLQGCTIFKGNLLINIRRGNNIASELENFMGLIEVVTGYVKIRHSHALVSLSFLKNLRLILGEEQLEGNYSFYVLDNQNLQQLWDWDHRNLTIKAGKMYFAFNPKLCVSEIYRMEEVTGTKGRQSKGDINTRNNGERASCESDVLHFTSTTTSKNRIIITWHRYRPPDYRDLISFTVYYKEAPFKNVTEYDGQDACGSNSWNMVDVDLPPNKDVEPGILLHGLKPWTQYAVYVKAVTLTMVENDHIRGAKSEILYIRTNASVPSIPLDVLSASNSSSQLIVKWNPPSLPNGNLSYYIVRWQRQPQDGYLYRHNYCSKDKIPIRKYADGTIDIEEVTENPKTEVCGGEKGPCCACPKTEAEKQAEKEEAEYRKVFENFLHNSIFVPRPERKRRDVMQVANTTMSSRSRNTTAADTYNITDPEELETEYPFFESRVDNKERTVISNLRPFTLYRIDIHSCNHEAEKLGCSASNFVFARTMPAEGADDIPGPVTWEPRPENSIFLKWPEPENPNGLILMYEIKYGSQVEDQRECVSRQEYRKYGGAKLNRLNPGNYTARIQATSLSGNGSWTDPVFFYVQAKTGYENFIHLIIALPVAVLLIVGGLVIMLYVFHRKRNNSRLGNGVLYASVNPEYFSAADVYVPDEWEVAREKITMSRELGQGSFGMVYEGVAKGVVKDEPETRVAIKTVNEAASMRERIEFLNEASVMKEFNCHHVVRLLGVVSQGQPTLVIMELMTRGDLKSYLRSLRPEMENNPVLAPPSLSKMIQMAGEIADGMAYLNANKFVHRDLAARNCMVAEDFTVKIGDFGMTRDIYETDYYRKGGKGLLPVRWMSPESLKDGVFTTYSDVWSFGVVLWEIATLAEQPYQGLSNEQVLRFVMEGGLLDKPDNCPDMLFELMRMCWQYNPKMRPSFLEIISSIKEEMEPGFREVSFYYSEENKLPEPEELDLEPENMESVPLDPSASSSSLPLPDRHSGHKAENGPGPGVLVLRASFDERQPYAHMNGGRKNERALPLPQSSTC

`COc1cc(OC2CN(C(=O)CO)C2)ccc1Nc1ncc(Cl)c(-c2cnc3ccccn23)n1` [Example 27.3, 1-[3-[4-[(5-chloro-4-imidazo[1,2-a]pyridin-3-yl-pyrimidin-2-yl)amino]-3-methoxy-phenoxy]azetidin-1-yl]-2-hydroxy-ethanone]: the IC50 is 22 nM.

As for `COc1cc(N2CCN(C(=O)[C@@H](C)N)CC2)ccc1Nc1ncc(C)c(-c2cnn3ccccc23)n1` [Example 235, (2R)-2-amino-1-[4-[3-methoxy-4-[(5-methyl-4-pyrazolo[1,5-a]pyridin-3-yl-pyrimidin-2-yl)amino]phenyl]piperazin-1-yl]propan-1-one], the IC50 was 13 nM.

As to `COc1cc(N2CCNC(C(=O)N(C)C)C2)ccc1Nc1ncc(Cl)c(-c2cnc3ccccn23)n1` (centres unmarked) [Example 19, 4-[4-[(5-chloro-4-imidazo[1,2-a]pyridin-3-yl-pyrimidin-2-yl)amino]-3-methoxy-phenyl]-N,N-dimethyl-piperazine-2-carboxamide], the IC50 was 11 nM.

Take `COc1ccc(N2CCNCC2)cc1Nc1ncc(Cl)c(-c2cnn3ccccc23)n1` [Example 147, 5-chloro-N-(2-methoxy-5-piperazin-1-yl-phenyl)-4-pyrazolo[1,5-a]pyridin-3-yl-pyrimidin-2-amine]: the IC50 stood at 14 nM.

For the compound `COc1cc(N2CCN(C[C@@H](O)CO)CC2)ccc1Nc1ncc(C)c(-c2cnc3ccccn23)n1` [Example 267, (2R)-3-[4-[4-[(4-imidazo[1,2-a]pyridin-3-yl-5-methyl-pyrimidin-2-yl)amino]-3-methoxy-phenyl]piperazin-1-yl]propane-1,2-diol], the IC50 is 27 nM.

In the case of `COc1cc(N2CC[C@H](O)C2)ccc1Nc1ncc(F)c(-c2cnc3ccccn23)n1` [Example 83, (3S)-1-[4-[(5-fluoro-4-imidazo[1,2-a]pyridin-3-yl-pyrimidin-2-yl)amino]-3-methoxy-phenyl]pyrrolidin-3-ol], the IC50 was found to be 167 nM.

Take `COc1cc(N2CCN(CCO)CC2)c(C)cc1Nc1ncc(Cl)c(-c2cnc3ccccn23)n1` [Example 279, 2-[4-[4-[(5-chloro-4-imidazo[1,2-a]pyridin-3-yl-pyrimidin-2-yl)amino]-5-methoxy-2-methyl-phenyl]piperazin-1-yl]ethanol]: the IC50 was found to be 8 nM.

With `COc1cc(N2CCN(C[C@H](C)O)CC2)ccc1Nc1ncc(F)c(-c2cnc3ccccn23)n1` [Example 89, (2S)-1-[4-[4-[(5-fluoro-4-imidazo[1,2-a]pyridin-3-yl-pyrimidin-2-yl)amino]-3-methoxy-phenyl]piperazin-1-yl]propan-2-ol], the IC50 was determined as 34 nM.

In the case of `CNCC(=O)N1CCC(c2ccc(Nc3ncc(C)c(-c4cnn5ccccc45)n3)c(OC)c2)CC1` [Example 237, 1-[4-[3-methoxy-4-[(5-methyl-4-pyrazolo[1,5-a]pyridin-3-yl-pyrimidin-2-yl)amino]phenyl]-1-piperidyl]-2-(methylamino)ethanone], the IC50 amounted to 8 nM.

As for `COc1ccc(N2CCNCC2)cc1Nc1ncc(F)c(-c2cnn3ccccc23)n1` [Example 174, 5-fluoro-N-(2-methoxy-5-piperazin-1-yl-phenyl)-4-pyrazolo[1,5-a]pyridin-3-yl-pyrimidin-2-amine], the IC50 was 63 nM.

`COc1cc(O[C@@H]2CCN(C(=O)C(C)O)C2)ccc1Nc1ncc(Cl)c(-c2cnc3ccccn23)n1` (mixture of isomers) [Example 12, 1-[(3R)-3-[4-[(5-chloro-4-imidazo[1,2-a]pyridin-3-yl-pyrimidin-2-yl)amino]-3-methoxy-phenoxy]pyrrolidin-1-yl]-2-hydroxy-propan-1-one]: the IC50 came out at 22 nM.

Take `COc1cc(N2CCN(C(C)(C)CO)CC2)ccc1Nc1ncc(Cl)c(-c2cnc3ccc(F)cn23)n1` [Example 259, 2-[4-[4-[[5-chloro-4-(6-fluoroimidazo[1,2-a]pyridin-3-yl)pyrimidin-2-yl]amino]-3-methoxy-phenyl]piperazin-1-yl]-2-methyl-propan-1-ol]: the IC50 was found to be 4 nM.

Consider `COc1cc(N2CC3CN(C)CC(C2)O3)ccc1Nc1ncc(Cl)c(-c2cnc3c(F)cccn23)n1` [Example 203, 5-chloro-4-(8-fluoroimidazo[1,2-a]pyridin-3-yl)-N-[2-methoxy-4-(7-methyl-9-oxa-3,7-diazabicyclo[3.3.1]nonan-3-yl)phenyl]pyrimidin-2-amine], for which the 50% inhibitory concentration (IC50) is 9 nM.

On to `COc1cc(C2CCN(C(=O)[C@@H](C)O)CC2)ccc1Nc1ncc(C)c(-c2cnc3c(F)cccn23)n1` [Example 200, (2R)-1-[4-[4-[[4-(8-fluoroimidazo[1,2-a]pyridin-3-yl)-5-methyl-pyrimidin-2-yl]amino]-3-methoxy-phenyl]-1-piperidyl]-2-hydroxy-propan-1-one], for which the IC50 was 32 nM.

`COc1cc(OC2CN(C[C@H](C)O)C2)ccc1Nc1ncc(Cl)c(-c2cnc3ccccn23)n1` [Example 61, (2S)-1-[3-[4-[(5-chloro-4-imidazo[1,2-a]pyridin-3-yl-pyrimidin-2-yl)amino]-3-methoxy-phenoxy]azetidin-1-yl]propan-2-ol]: the IC50 is 21 nM.

`COc1cc(OC[C@H]2CCCN2)ccc1Nc1ncc(F)c(-c2cnc3ccccn23)n1` [Example 87, 5-fluoro-4-imidazo[1,2-a]pyridin-3-yl-N-[2-methoxy-4-[[(2R)-pyrrolidin-2-yl]methoxy]phenyl]pyrimidin-2-amine]: the IC50 worked out at 65 nM.

For `COc1cc(N2CCN(CCO)[C@H](C)C2)ccc1Nc1ncc(C)c(-c2cnc3ccccn23)n1` [Example 270, 2-[(2R)-4-[4-[(4-imidazo[1,2-a]pyridin-3-yl-5-methyl-pyrimidin-2-yl)amino]-3-methoxy-phenyl]-2-methyl-piperazin-1-yl]ethanol], the IC50 came to 43 nM.

Consider `COc1cc(CN2CCC2)ccc1Nc1ncc(Cl)c(-c2cnc3ccccn23)n1` [Example 21.10, N-[4-(azetidin-1-ylmethyl)-2-methoxy-phenyl]-5-chloro-4-imidazo[1,2-a]pyridin-3-yl-pyrimidin-2-amine], for which the IC50 was found to be 18 nM.

With `COc1cc(N2CCOCC2)ccc1Nc1ncc(F)c(-c2cnc3ccccn23)n1` [Example 79, 5-fluoro-4-imidazo[1,2-a]pyridin-3-yl-N-(2-methoxy-4-morpholino-phenyl)pyrimidin-2-amine], the IC50 was found to be 56 nM.

`COc1cc(OC2CN(CC(C)(C)O)C2)ccc1Nc1ncc(Cl)c(-c2cnc3ccccn23)n1` [Example 63, 1-[3-[4-[(5-chloro-4-imidazo[1,2-a]pyridin-3-yl-pyrimidin-2-yl)amino]-3-methoxy-phenoxy]azetidin-1-yl]-2-methyl-propan-2-ol]: the IC50 amounted to 16 nM.

Regarding `COc1cc(C2CCN(C(=O)CO)CC2)ccc1Nc1ncc(C)c(-c2cnc3c(F)cccn23)n1` [Example 198, 1-[4-[4-[[4-(8-fluoroimidazo[1,2-a]pyridin-3-yl)-5-methyl-pyrimidin-2-yl]amino]-3-methoxy-phenyl]-1-piperidyl]-2-hydroxy-ethanone], the concentration for half-maximal inhibition (IC50) worked out at 26 nM.

Take `COc1cc(N2CC3CN(CCO)CC(C2)O3)ccc1Nc1ncc(C)c(-c2cnc3ccccn23)n1` [Example 232, 2-[7-[4-[(4-imidazo[1,2-a]pyridin-3-yl-5-methyl-pyrimidin-2-yl)amino]-3-methoxy-phenyl]-9-oxa-3,7-diazabicyclo[3.3.1]nonan-3-yl]ethanol]: the IC50 is 23 nM.

With `COc1cc(N2CCN(C[C@H](C)O)CC2)ccc1Nc1ncc(Cl)c(-c2cnc3ccccn23)n1` [Example 50, (2S)-1-[4-[4-[(5-chloro-4-imidazo[1,2-a]pyridin-3-yl-pyrimidin-2-yl)amino]-3-methoxy-phenyl]piperazin-1-yl]propan-2-ol], the 50% inhibitory concentration (IC50) was found to be 8 nM.

On to `COc1cc(CC(=O)N2CC[C@H](O)C2)ccc1Nc1ncc(Cl)c(-c2cnc3ccccn23)n1` [Example 38, 2-[4-[(5-chloro-4-imidazo[1,2-a]pyridin-3-yl-pyrimidin-2-yl)amino]-3-methoxy-phenyl]-1-[(3S)-3-hydroxypyrrolidin-1-yl]ethanone], for which the IC50 is 44 nM.

Turning to `COc1cc(N2CCNCC2)ccc1Nc1ncc(OC)c(-c2cnc3ccccn23)n1` [Example 93, 4-imidazo[1,2-a]pyridin-3-yl-5-methoxy-N-(2-methoxy-4-piperazin-1-yl-phenyl)pyrimidin-2-amine], the IC50 stood at 27 nM.

For the compound `COc1cc(CC(=O)NC2CCNC2)ccc1Nc1ncc(Cl)c(-c2cnc3ccccn23)n1` (centres unmarked) [Example 35, 2-[4-[(5-chloro-4-imidazo[1,2-a]pyridin-3-yl-pyrimidin-2-yl)amino]-3-methoxy-phenyl]-N-pyrrolidin-3-yl-acetamide], the IC50 stood at 21 nM.

Consider `COc1cc(CN2CC[C@H](O)C2)ccc1Nc1ncc(Cl)c(-c2cnc3ccccn23)n1` [Example 20, (3S)-1-[[4-[(5-chloro-4-imidazo[1,2-a]pyridin-3-yl-pyrimidin-2-yl)amino]-3-methoxy-phenyl]methyl]pyrrolidin-3-ol], for which the IC50 was found to be 19 nM.

`COc1cc(CC(CO)CO)ccc1Nc1ncc(Cl)c(-c2cnc3c(F)cccn23)n1` [Example 193, 2-[[4-[[5-chloro-4-(8-fluoroimidazo[1,2-a]pyridin-3-yl)pyrimidin-2-yl]amino]-3-methoxy-phenyl]methyl]propane-1,3-diol]: the IC50 stood at 25 nM.

With `COc1cc(N2CCNCC2)ccc1Nc1ncc(F)c(-c2cnc3ccccn23)n1` [Example 73, 5-fluoro-4-imidazo[1,2-a]pyridin-3-yl-N-(2-methoxy-4-piperazin-1-yl-phenyl)pyrimidin-2-amine], the IC50 turned out to be 71 nM.

For the origin of these results see patent US20100105655A1, “NOVEL COMPOUNDS 515” (ASTRAZENECA AB, priority 2008, published 2010).
